Test results taken from patent publication US7879760B2, “Isopentyl carboxanilides for combating undesired micro-organisms” (Bayer CropScience AG, priority 2003, dated 2011).
Structures can show the parent of a compound that is named as a salt.

Test system: Botrytis cinerea
Assay: Botrytis test (bean)/protective
Format: in vivo
Conditions: 48 h, bean plants, protective spray, application rate 500 g/ha, evaluation two days after inoculation, read-out: Efficacy in %
Description: To produce a suitable preparation of active compound, 1 part by weight of active compound is mixed with the stated amounts of solvents and emulsifier, and the concentrate is diluted with water to the desired concentration.
To test for protective activity, young plants are sprayed with the preparation of active compound at the stated application rates. After the spray coating has dried on, 2 small pieces of agar colonized by Botrytis cinerea are placed onto each leaf. The inoculated plants are placed in a dark chamber at about 20° C. and 100% relative atmospheric humidity.
Two days after the inoculation, the size of the infected areas on the leaves is evaluated. 0% means an efficacy which corresponds to that of the control, whereas an efficacy of 100% means that no infection is observed.
Work on `Cc1nn(C)c(F)c1C(=O)Nc1ccccc1CCC(C)(C)C` [drawing 111] yielded a pest or weed control at 500 g/ha of 100%.
`Cn1cc(C(=O)Nc2ccc(F)cc2CCC(C)(C)C)c(C(F)F)n1` [drawing 118] showed a pest or weed control at 500 g/ha of 100%.
Compound `Cc1nn(C)c(F)c1C(=O)Nc1ccccc1CCC(C)C` [drawing 110] has a pest or weed control at 500 g/ha of 84%.
Compound `Cc1ccsc1C(=O)Nc1ccccc1CCC(C)(C)C` [drawing 112] has a pest or weed control at 500 g/ha of 100%.
In the case of `CCC(C)(C)CCc1ccccc1NC(=O)c1cn(C)nc1C(F)F` [drawing 115], the pest or weed control at 500 g/ha is reported as 100%.
Work on `Cn1nc(C(F)(F)F)c(C(=O)Nc2ccccc2CCC(C)(C)C)c1F` [drawing 117] yielded a pest or weed control at 500 g/ha of 100%.
In the case of `Cn1cc(C(=O)Nc2ccccc2CCC(C)(C)C)c(C(F)F)n1` [drawing 116], the pest or weed control at 500 g/ha is reported as 100%.
In the case of `CCC(C)(C)CCc1ccccc1NC(=O)c1c(C)nn(C)c1F` [drawing 114], the pest or weed control at 500 g/ha is reported as 100%.
In the case of `Cc1ccccc1C(=O)Nc1ccccc1CCC(C)(C)C` [drawing 113], the pest or weed control at 500 g/ha is reported as 87%.

Test system: Sphaerotheca fuliginea
Assay: Sphaerotheca test (cucumber)/protective
Format: in vivo
Conditions: cucumber plants, protective spray; application rate 750 g/ha; evaluation 7 days after inoculation
Description: (§1) To produce a suitable preparation of active compound, 1 part by weight of active compound is mixed with the stated amounts of solvent and emulsifier, and the concentrate is diluted with water to the desired concentration.
To test for protective activity, young cucumber plants are sprayed with the preparation of active compound at the stated application rates. One day after the treatment, the plants are inoculated with a spore suspension of Sphaerotheca fuliginea. The plants are then placed in a greenhouse at 70% relative atmospheric humidity and a temperature of 23° C.
Evaluation is carried out 7 days after the inoculation. 0% means an efficacy which corresponds to that of the control, whereas an efficacy of 100% means that no infection is observed.
With `CC(C)CCc1ccccc1NC(=O)c1ccccc1C(F)(F)F` [drawing 130] the Efficacy in % was 100%.
Work on `Cc1nn(C)c(F)c1C(=O)Nc1ccccc1CCC(C)C` [drawing 128] yielded an Efficacy in % of 100%.
Compound `Cc1ccccc1C(=O)Nc1ccccc1CCC(C)(C)C` [drawing 131] has an Efficacy in % of 100%.
`Cc1ccsc1C(=O)Nc1ccccc1CCC(C)(C)C` [drawing 129] gave an Efficacy in % of 100%.

Test system: Puccinia recondita
Assay: Puccinia test (wheat)/curative
Format: in vivo
Conditions: 192 h, wheat plants, curative spray 48 hours after inoculation, application rate 500 g/ha, evaluation 8 days after inoculation, read-out: Efficacy in %
Description: as §1
To test for curative activity, young plants are sprayed with a conidia suspension of Puccinia recondita. The plants remain in an incubation cabin at 20° C. and 100% relative atmospheric humidity for 48 hours. The plants are then sprayed with the preparation of active compound at the stated application rates.
The plants are then placed in a greenhouse at a temperature of about 20° C. and a relative atmospheric humidity of 80% to promote the development of rust pustules.
Evaluation is carried out 8 days after the inoculation. 0% means an efficacy which corresponds to that of the control, whereas an efficacy of 100% means that no infection is observed.
In the case of `Cn1cc(C(=O)Nc2ccc(F)cc2CCC(C)(C)C)c(C(F)F)n1` [drawing 127], the pest or weed control at 500 g/ha is reported as 100%.
In the case of `Cn1cc(C(=O)Nc2ccccc2CCC(C)(C)C)c(C(F)F)n1` [drawing 126], the pest or weed control at 500 g/ha is reported as 100%.
`Cc1nn(C)c(F)c1C(=O)Nc1ccccc1CCC(C)C` [drawing 119] gave a pest or weed control at 500 g/ha of 100%.
`Cc1nn(C)c(F)c1C(=O)Nc1ccccc1CCC(C)(C)C` [drawing 120] showed a pest or weed control at 500 g/ha of 100%.
For `CCC(C)(C)CCc1ccccc1NC(=O)c1cn(C)nc1C(F)F` [drawing 125], the pest or weed control at 500 g/ha was 100%.
`Cc1ccsc1C(=O)Nc1ccccc1CCC(C)(C)C` [drawing 121] gave a pest or weed control at 500 g/ha of 100%.
`CCC(C)(C)CCc1ccccc1NC(=O)c1c(C)nn(C)c1F` [drawing 124] showed a pest or weed control at 500 g/ha of 100%.
In the case of `Cc1ccccc1C(=O)Nc1ccccc1CCC(C)C`, the pest or weed control at 500 g/ha is reported as 100%.
In the case of `CC(C)CCc1ccccc1NC(=O)c1ccccc1C(F)(F)F` [drawing 122], the pest or weed control at 500 g/ha is reported as 100%.

Test system: Podosphaera leucotricha
Assay: Podosphaera test (apple)/protective
Format: in vivo
Conditions: 240 h, apple plants, protective spray, application rate 100 g/ha, evaluation 10 days after inoculation, read-out: Efficacy in %
Description: To produce a suitable preparation of active compound, 1 part by weight of compound is mixed with the stated amounts of solvents and emulsifier, and the concentrate is diluted with water to the desired concentration.
To test for protective activity, young plants are sprayed with the preparation of active compound at the stated application rates. After the spray coating has dried on, the plants are inoculated with an aqueous spore suspension of the apple mildew pathogen Podosphaera leucotricha. The plants are then placed in a greenhouse at about 23° C. and a relative atmospheric humidity of about 70%.
Evaluation is carried out 10 days after the inoculation. 0% means an efficacy which corresponds to that of the control, whereas an efficacy of 100% means that no infection is observed.
With `Cc1ccsc1C(=O)Nc1ccccc1CCC(C)(C)C` [drawing 95] the pest or weed control at 100 g/ha was 99%.
Compound `Cc1nn(C)c(F)c1C(=O)Nc1ccccc1CCC(C)(C)C` [drawing 94] has a pest or weed control at 100 g/ha of 100%.
`Cc1nn(C)c(F)c1C(=O)Nc1ccccc1CCC(C)C` [drawing 93] gave a pest or weed control at 100 g/ha of 100%.
Work on `Cn1cc(C(=O)Nc2ccccc2CCC(C)(C)C)c(C(F)F)n1` [drawing 99] yielded a pest or weed control at 100 g/ha of 100%.
In the case of `CCC(C)(C)CCc1ccccc1NC(=O)c1c(C)nn(C)c1F` [drawing 97], the pest or weed control at 100 g/ha is reported as 99%.
`Cn1nc(C(F)(F)F)c(C(=O)Nc2ccccc2CCC(C)(C)C)c1F` [drawing 100] showed a pest or weed control at 100 g/ha of 100%.
For `Cc1ccccc1C(=O)Nc1ccccc1CCC(C)(C)C` [drawing 96], the pest or weed control at 100 g/ha was 97%.
Compound `CCC(C)(C)CCc1ccccc1NC(=O)c1cn(C)nc1C(F)F` [drawing 98] has a pest or weed control at 100 g/ha of 100%.

Test system: not listed separately
Assay: logP determination by HPLC on reversed phase column (C 18), EEC-Directive 79/831 Annex V.A8
Format: physicochemical
Conditions: reversed phase HPLC column (C 18), pH 2.3, 0.1% aqueous phosphoric acid/acetonitrile gradient, 43° C.
Description: The determination of the logP values given in preparation examples and tables above is carried out according to EEC-Directive 79/831 Annex V.A8 by HPLC (High Performance Liquid Chromatography) on a reversed phase column (C 18). Temperature: 43° C.
Determination is carried out in the acidic range at pH 2.3 using the mobile phases 0.1% aqueous phosphoric acid and acetonitrile; linear gradient from 10% acetonitrile to 90% acetonitrile.
Calibration is carried out using unbranched alkan-2-ones (of 3 to 16 carbon atoms) whose logP values are known (determination of the logP values by retention times using linear interpolation between two successive alkanones).
Work on `Cc1nn(C)c(F)c1C(=O)Nc1ccccc1CCC(C)C` [Example 1, 5-fluoro-1,3-dimethyl-N-[2-(3-methylbutyl)phenyl]-1H-pyrazole-4-carboxamide] yielded a chromatographic logP of 3.12.
With `CC(C)(C)C#Cc1ccccc1NC(=O)c1ccccc1C(F)(F)F` [Example (VII-1), N-[2-(3,3-dimethylbut-1-ynyl)phenyl]-2-trifluoromethylbenzamide] the chromatographic logP was 4.55.
In the case of `CC(=O)Nc1ccccc1C#CC(C)(C)C` [Example (XIII-1), N-[2-(3,3-dimethylbut-1-ynyl)-phenyl]acetamide], the chromatographic logP is reported as 3.03.
Compound `CC(C)CC(=O)c1ccccc1N` [Example (X-1), 1-(2-aminophenyl)-3-methylbutan-1-one] has a chromatographic logP of 2.89.
Compound `CC(=O)Nc1ccccc1CCC(C)(C)C` [Example (III-2), N-[2-(3,3-dimethylbutyl)phenyl]acetamide] has a chromatographic logP of 2.69.
With `CC(C)(C)CCc1ccccc1N` [Example (III-3), 2-(3,3-dimethylbutyl)phenylamine hydrochloride] the chromatographic logP was 2.2.
Work on `Cc1nn(C)c(F)c1C(=O)Nc1ccccc1C(=O)CC(C)C` [Example (V-1)] yielded a chromatographic logP of 3.42.

Test system: Venturia inaequalis
Assay: Venturia test (apple)/protective
Format: in vivo
Conditions: apple plants, protective spray, application rate 100 g/ha, read-out: Efficacy in %
Description: [table] To produce a suitable preparation of active compound, 1 part by weight of active compound is mixed with the stated amounts of solvents and emulsifier, and the concentrate is diluted with water to the desired concentration. To test for protective activity, young plants are sprayed with the preparation of active compound at the stated application rates. After the spray coating has dried on, the plants are inoculated with an aqueous conidia suspension of the apple scab pathogen Venturia inaequalis and then remain in an incubation cabin at about 20° C. and 100% relative atmospheric humidity for 1 day. The plants are then placed in a greenhouse at about 21° C. and a relative atmospheric humidity of about 90%.
Compound `Cn1cc(C(=O)Nc2ccc(F)cc2CCC(C)(C)C)c(C(F)F)n1` [drawing 109] has a pest or weed control at 100 g/ha of 100%.
`Cc1nn(C)c(F)c1C(=O)Nc1ccccc1CCC(C)(C)C` [drawing 102] showed a pest or weed control at 100 g/ha of 100%.
`Cn1cc(C(=O)Nc2ccccc2CCC(C)(C)C)c(C(F)F)n1` [drawing 107] showed a pest or weed control at 100 g/ha of 100%.
With `Cc1ccccc1C(=O)Nc1ccccc1CCC(C)(C)C` [drawing 104] the pest or weed control at 100 g/ha was 97%.
Work on `CCC(C)(C)CCc1ccccc1NC(=O)c1cn(C)nc1C(F)F` [drawing 106] yielded a pest or weed control at 100 g/ha of 100%.
With `Cc1ccsc1C(=O)Nc1ccccc1CCC(C)(C)C` [drawing 103] the pest or weed control at 100 g/ha was 99%.
`Cn1nc(C(F)(F)F)c(C(=O)Nc2ccccc2CCC(C)(C)C)c1F` [drawing 108] gave a pest or weed control at 100 g/ha of 100%.
Work on `Cc1nn(C)c(F)c1C(=O)Nc1ccccc1CCC(C)C` [drawing 101] yielded a pest or weed control at 100 g/ha of 96%.
In the case of `CCC(C)(C)CCc1ccccc1NC(=O)c1c(C)nn(C)c1F` [drawing 105], the pest or weed control at 100 g/ha is reported as 100%.
